Patent US20060234944A1, “Beta-secretase inhibitors and methods of use” (Oklahoma Medical Reseach Foundation, priority 2001, published 2006)

Legend:
[1] = target: T1, memapsin 2 (Homo sapiens, UniProt P56817); experiment: Inhibition of memapsin 2 cleavage of fluorogenic substrate FS-2 (Ki, Ki apparent, Vi/Vo, % inhibition); format: biochemical; conditions: for % Inh (M1/M2): Table 9, ratio of % inhibition memapsin 1 / memapsin 2, 1 or less = greater inhibition of memapsin 2; for Ki: Table 1, apparent Ki in presence of substrate FS-2, N.I. = no inhibition, read-out: Ki app
T1 construct: made in house; host or cells: E. coli
Experimental: Ki is the inhibition equilibrium constant which indicates the ability of compounds to inhibit the β-secretase activity of memapsin 2 and memapsin 1. […] The K1 value is independent of the substrate, and converted from Ki apparent.
The Vi/Vo values depicted in Table 1 were determined at conditions under which the enzyme and inhibitor concentrations were equal (e.g., about 80 nM, 100 nM).
The relationship of Ki (independent of substrate concentration) to Kiapp is a function of substrate concentration in the assay and the Km for cleavage of the substrate by either memapsin 1 or memapsin 2 by the relationship: Kiapp=Ki(1+[S]/Km).
Ki is the inhibition equilibrium constant which indicates the ability of compounds to inhibit the β-secretase activity of memapsin 2 and memapsin 1. […] The Ki value is independent of the substrate, and converted from Ki apparent.
An aliquot of the inhibitor of known concentration in DMSO was diluted into 1.8 ml 0.1 M NaOAc, pH 4.0. DMSO and added to a final concentration of 10% (v/v), and memapsin 2 (final concentration of 80 nM), followed by a 20 minute equilibration at 37° C. Compounds were evaluated for the ability to inhibit memapsin 1 and memapsin 2 at concentrations between about 10 nM and about 10 μm of inhibitor.
The relationship of Ki (independent of substrate concentration) to Kiapp is a function of substrate concentration in the assay and the Km for cleavage of the substrate by either memapsin 1 or memapsin 2 by the relationship: Kiapp=Ki (1+[S]/Km).

[2] = test system: plasma Aβ40; experiment: Inhibition of Aβ production in APP/F transgenic mouse model of Alzheimer's disease (plasma Aβ40 sandwich ELISA); format: in vivo, mice; conditions: for Reduction of plasma Aβ40 / Course of inhibition of plasma Aβ40 over a 24-h period: APP/F mice; for Reduction of plasma Aβ40: about 163 nanomoles i.p., within 30 minutes following injection; for Course of inhibition of plasma Aβ40 over a 24-h period: single i.p. injection; for Blood brain barrier penetration in transgenic mice: concluded from reduction of plasma Aβ
Experimental: Compounds MMI-138, MMI-165, and MMI-185 were synthesized as described above. Compounds were dissolved in 1 ml of dimethyl sulfoxide (DMSO) to a final concentration of about 1 mg/ml for MMI-165 and MMI-185, and about 10 mg/ml for MMI-138. […] Inhibitors were diluted into PBS or H2O immediately prior to injection, as described below. Inhibition constants were determined by methods described by Ermolieff, et al (Biochem. 39:12450-12456 (2000), the teachings of which are incorporated hereby in their entirety).
The tg2576 strain of mice was obtained from Taconic (Germantown, N.Y.). The APP/F strain of mice were obtained by mating the tg2576 mice with the FVB/N strain. To determine presence of the Swedish APP gene in APP/F mice, the DNA from mice was isolated according to the Qiagen Dneasy™ Tissue Kit. PCR (Qiagen kit and protocol) was used to amplify the fragment of DNA corresponding to the human Swedish APP gene. The following primers were used: […]
At the age of three months, animals of the Alzheimer's disease mouse model APP/F were injected intraperitoneally (i.p.) with about 163 nanomoles of either compounds MMI-138 (molecular weight 674 g/mole; 110 μg per animal, n=2), MMI-165 (molecular weight 626 g/mole; 102 μg per animal, n—2), or MMI-185 (molecular weight 686; 112 μg per animal, n—2).
Heparinized capillary tubes collected blood samples from anesthetized animals from either the retro-orbital sinus or from the saphenous vein at specified intervals following injection. The blood samples were transferred to sterile 1.5 mL microcentrifuge tubes, centrifuged at 5,100 RPM for 10 minutes to recover the plasma (supernatant), and stored at −70° C. until analysis for the Aβ40 by Enzyme Linked-Immuno-Sorbent Assay (ELISA).
A sandwich ELISA (BioSource International, Camarillo, Calif.) was used to determine the levels of Aβ40 in plasma samples. The ELISA utilizes a primary antibody specific for human Aβ for the immobilization of the amino-terminus and a detection antibody specific for the carboxy-terminal amino acids of Aβ40. A conjugated secondary antibody was used to detect the ternary complex, using a stabilized chromogen substrate, quantifiable following addition of 1 M HCl, with the optical densities measured at 450 nm. The procedures were followed according to the BioSource protocol. Optical densities were converted to pg/ml quantities of Aβ40 using a linear regression of the optical densities of standards obtained from the commercial kit, to their known concentrations.

T1 sequence (P56817 41-454): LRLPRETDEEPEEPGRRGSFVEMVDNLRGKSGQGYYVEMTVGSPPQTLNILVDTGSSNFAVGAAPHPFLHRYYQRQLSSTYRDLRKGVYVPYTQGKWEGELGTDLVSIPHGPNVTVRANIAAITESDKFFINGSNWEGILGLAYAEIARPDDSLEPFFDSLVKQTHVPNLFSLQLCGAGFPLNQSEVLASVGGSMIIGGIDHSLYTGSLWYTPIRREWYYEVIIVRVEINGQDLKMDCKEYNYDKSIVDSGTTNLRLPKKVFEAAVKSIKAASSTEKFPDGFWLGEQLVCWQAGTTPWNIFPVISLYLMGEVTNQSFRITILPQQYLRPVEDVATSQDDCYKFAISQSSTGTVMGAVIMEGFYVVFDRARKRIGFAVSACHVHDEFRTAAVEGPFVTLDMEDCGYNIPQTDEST

Row | Compound | % Inh (M1/M2) [1] | Ki [1] [µM] | also measured
1 | Cc1c(O)cccc1C(=O)N[C@@H](C(C)C)[C@@H](O)N[C@@H](CCS(C)(=O)=O)C(=O)N[C@@H](CC(C)C)[C@@H](O)C[C@@H](C)C(=O)N[C@@H](CC(C)C)C(=O)NCc1ccccc1 [MMI-122] | – | – | Vi/Vo ([1]; ratio of initial cleavage velocities of FS-2 with/without compound, enzyme and inhibitor concentrations equal (e.g., about 80 nM, 100 nM)): 1.17
2 | Cc1cc(C)n(COC(=O)N[C@@H](CCS(C)(=O)=O)C(=O)N[C@@H](CC(C)C)[C@@H](O)C[C@@H](C)C(=O)N[C@H](C(=O)NCc2ccccc2)C(C)C)n1 [MMI-139] | 0 | – | –
3 | CC(C)C[C@H](NC(=O)OC(C)(C)C)[C@@H](O)C[C@@H](C)C(=O)N[C@@H](C)C(=O)N[C@@H](CCS(C)(=O)=O)C(=O)NCc1ccccc1 [MMI-003] | – | 2620 | –
4 | CSCC[C@H](NC(=O)[C@@H](NC(=O)OC(C)(C)C)C(C)C)C(=O)N[C@@H](CC(C)C)[C@@H](O)C[C@@H](CO)C(=O)N[C@H](C(=O)NCc1ccccc1)C(C)C [MMI-078] | – | – | % Inh (M1/M2) ([1]; listed as 78): 0.76
5 | CC(C)C[C@H](NC(=O)[C@H](CCS(C)(=O)=O)NC(=O)[C@@H](NC(=O)OC(C)(C)C)C(C)C)[C@@H](O)C[C@@H](C)C(=O)N[C@@H]1c2ccccc2C[C@@H]1O [MMI-054] | – | 469 | –
6 | CC(C)C[C@H](NC(=O)[C@H](CCS(C)(=O)=O)NC(=O)[C@@H](NC(=O)OC(C)(C)C)C(C)C)[C@@H](O)C[C@@H](C)C(=O)N[C@@H]1CCCC[C@@H]1O [MMI-058] | – | 408 | –
7 | CC(C)C[C@H](NC(=O)OC(C)(C)C)[C@@H](O)C[C@@H](C)C(=O)N[C@@H](C)C(=O)NCc1ccccc1 [MMI-001] | – | 3740 | –
8 | CC(C)C[C@H](NC(=O)[C@H](CCS(C)(=O)=O)NC(=O)[C@@H](NC(=O)OC(C)(C)C)C(C)C)[C@@H](O)C[C@@H](C)C(=O)N[C@@H]1CCCC[C@@H]1O [MMI-060] | – | 101 | –
9 | CSCC[C@H](NC(=O)[C@@H](NC(=O)OC(C)(C)C)C(C)C)C(=O)N[C@@H](CC(C)C)[C@@H](O)CN(C)C(=O)[C@H](NC(=O)OCc1ccccc1)C(C)C [MMI-061] | – | 15500 | –
10 | CC(C)C[C@H](NC(=O)[C@H](CCS(C)(=O)=O)NC(=O)[C@@H](NC(=O)OC(C)(C)C)C(C)C)[C@@H](O)C[C@@H](C)C(=O)N[C@@H](C(=O)NCc1ccccc1)[C@@H](C)O [MMI-073] | 0.73 | – | –
11 | CSCC[C@H](NC(=O)[C@@H](NC(=O)OC(C)(C)C)C(C)C)C(=O)N[C@@H](CC(C)C)[C@@H](O)C[C@@H](CO)C(=O)N[C@H](C(=O)NCc1ccccc1)C(C)C [MMI-132] | 1.30 | – | –
12 | CCC(C)[C@H](NC(=O)[C@H](C)C[C@H](O)[C@H](CC(C)C)NC(=O)[C@H](CCO)NC(=O)c1cnc2ccccc2c1)C(=O)N[C@H]1c2ccccc2C[C@H]1O (stereo partly shown) [MMI-050] | – | 146 | –
13 | CC(C)C[C@H](NC(=O)[C@H](CCS(C)(=O)=O)NC(=O)[C@@H](NC(=O)OC(C)(C)C)C(C)C)[C@@H](O)C[C@@H](C)C(=O)N[C@H]1c2ccccc2C[C@H]1O [MMI-047] | – | 111 | –
14 | CC(C)C[C@H](NC(=O)[C@H](CCO)NC(=O)c1cnc2ccccc2c1)[C@@H](O)C[C@@H](C)C(=O)N[C@H](C(=O)N[C@H]1c2ccccc2C[C@H]1O)C(C)C [MMI-049] | – | 198 | –
15 | CSCC[C@H](NC(=O)[C@@H](NC(=O)OC(C)(C)C)C(C)C)C(=O)N[C@@H](CC(C)C)[C@@H](O)C[C@@H](C)C(=O)N[C@H]1c2ccccc2C[C@H]1O [MMI-046] | – | 150 | –
16 | COCC[C@H](NC(=O)[C@H](CC(C)C)NC(=O)OC(C)(C)C)C(=O)N[C@@H](CC(C)C)[C@@H](O)C[C@@H](C)C(=O)N[C@@H](CC(C)C)C(=O)NC(C)C [MMI-185] | – | – | Reduction of plasma Aβ40 [2]: 63%; Course of inhibition of plasma Aβ40 over a 24-h period [2]: appeared to return to initial level; Blood brain barrier penetration in transgenic mice [2]: penetrated the blood brain barrier

More lines, main results first:

Row | % Inh (M1/M2) [1] | Ki [1] [µM] | Compound | also measured
17 | 0.19 | – | CSCC[C@H](NC(=O)OCn1nc(C)cc1C)C(=O)N[C@@H](CC(C)C)[C@@H](O)C[C@]1(C)CCN([C@@H](CC(C)C)C(=O)NCC(C)C)C1=O [MMI-181] | –
18 | 0.18 | – | CSCC[C@H](NC(=O)OCn1nc(C)cc1C)C(=O)N[C@@H](CC(C)C)[C@@H](O)C[C@@H](C)C(=O)N[C@@H](CC(C)C)C(=O)NC(CF)CF [MMI-171] | –
19 | – | 110 | CSCC[C@H](NC(=O)[C@@H](NC(=O)OC(C)(C)C)C(C)C)C(=O)N[C@@H](CC(C)C)[C@@H](O)C[C@@H](C)C(=O)N[C@@H](C(C)C)C1CCCCO1 (stereo partly shown) [MMI-130] | –
20 | 0 | – | CSCC[C@H](NC(=O)OCCn1nc(C(C)C)cc1C(C)C)C(=O)N[C@@H](CC(C)C)[C@@H](O)C[C@@H](C)C(=O)N[C@H](C(=O)NCC(C)C)C(C)C [MMI-180] | –
21 | 0 | – | CSCC[C@H](NC(=O)OCCn1nc(C)cc1C)C(=O)N[C@@H](CC(C)C)[C@@H](O)C[C@@H](C)C(=O)N[C@@H](CC(C)C)C(=O)NCC(C)C [MMI-176] | –
22 | – | 631 | CSCC[C@H](NC(=O)[C@@H](NC(=O)OC(C)(C)C)C(C)C)C(=O)N[C@@H](CC(C)C)[C@@H](O)C[C@@H](C)C(=O)N[C@H]1CCCC[C@@H]1O [MMI-055] | –
23 | 0.47 | – | CSCC[C@H](NC(=O)OCn1nc(C)cc1C)C(=O)N[C@@H](CC(C)C)[C@@H](O)C[C@@H](C)C(=O)N[C@H](C(=O)NCC(C)C)C(C)C [MMI-156] | –
24 | 0.45 | – | CSCC[C@H](NC(=O)OCn1nc(C)cc1C)C(=O)N[C@@H](CC(C)C)[C@@H](O)C[C@@H](C)C(=O)N[C@H](C(=O)NC(C)C)C(C)C [MMI-165] | Reduction of plasma Aβ40 [2]: 46%; Course of inhibition of plasma Aβ40 over a 24-h period [2]: remained nearly constant; Blood brain barrier penetration in transgenic mice [2]: penetrated the blood brain barrier
25 | 0 | – | CCCCNC(=O)[C@H](C(C)C)N1CC[C@@](C)(C[C@H](O)[C@H](CC(C)C)NC(=O)[C@H](CCSC)NC(=O)OCn2nc(C)cc2C)C1=O [MMI-182] | –
26 | – | 431 | CSCC[C@H](NC(=O)[C@H](C)NC(=O)[C@H](C)C[C@H](O)[C@H](CC(C)C)NC(=O)OC(C)(C)C)C(=O)NCc1ccccc1 [MMI-002] | –
27 | 0.10 | – | CSCC[C@H](NC(=O)OCn1nc(C)cc1C)C(=O)N[C@@H](CC(C)C)[C@@H](O)C[C@@H](C)C(=O)N[C@H](C(=O)NCc1ccccc1)C(C)C [MMI-138] | Reduction of plasma Aβ40 [2]: 57%; Course of inhibition of plasma Aβ40 over a 24-h period [2]: remained nearly constant; Blood brain barrier penetration in transgenic mice [2]: penetrated the blood brain barrier; Ki for memapsin 2 lower than Ki for memapsin 1 (selectivity) ([1]; memapsin 2 relative to memapsin 1, stated in text): about 60 fold
28 | 0.18 | – | CCCCNC(=O)[C@@H](NC(=O)[C@H](C)C[C@H](O)[C@H](CC(C)C)NC(=O)[C@H](CCSC)NC(=O)OCn1nc(C)cc1C)C(C)C [MMI-167] | –
